Assay: molar heat capacity at constant pressure; xn = mol fraction of the nth substance listed
Conditions: 101 kPa, Liquid, Small sample (50 mg) DSC

OCCN1CCNCC1 [N-(2-hydroxyethyl)piperazine] + O
molar heat capacity at constant pressure [J/K/mol]
Conditions	x1 = 0.0999	x1 = 0.2	x1 = 0.2921	x1 = 0.3916	x1 = 0.4896	x1 = 0.6011	x1 = 0.6947	x1 = 0.7952	x1 = 0.8939	x1 = 1
298.15 K	104.2	126.9	145.8	165.4	184.7	206.4	224.8	244.6	264.2	285
303.15 K	105.7	129.2	149.2	169.1	188.3	210.1	228.7	248.9	268.8	289.9
308.15 K	107.1	131.5	151.9	171.5	191	212.7	231.4	251.8	271.6	292.9
313.15 K	108.6	133.9	154.8	174.4	194.1	215.8	234.5	254.5	274.4	296
318.15 K	110.4	136.1	157.5	177.5	196.8	218.2	237.1	257.2	277.2	298.9
323.15 K	112.2	139	160.7	179.9	199.4	220.7	239.6	259.8	279.8	301.7
328.15 K	114.3	142.3	164.2	182.4	202	223.7	242.6	262.7	282.8	305
333.15 K	115.7	144.9	167.3	185.7	204.7	226.3	245.3	265.5	285.7	308.1
338.15 K	118.5	148	170.6	188.1	207.5	229.1	248.2	268.2	288.4	311
343.15 K	120.8	150.6	173.3	190.9	210.1	232	250.8	270.8	291.1	313.9
348.15 K	122.5	153	175.6	194	212.8	234.8	253.5	273.3	293.6	316.5
353.15 K	124	155.5	177.9	197.6	215.5	237.5	256.1	275.8	296.1	319

CN1CCN(C)CC1 [1,4-dimethylpiperazine] + O
molar heat capacity at constant pressure [J/K/mol]
Conditions	x1 = 0.1	x1 = 0.2007	x1 = 0.2992	x1 = 0.4011	x1 = 0.5	x1 = 0.6015	x1 = 0.6993	x1 = 0.799	x1 = 0.8983	x1 = 1
298.15 K	108.6	122.7	135.3	148.5	159.8	171.1	183.7	195.4	206.1	216.5
303.15 K	110.2	124.5	137.6	150.9	162.6	174.8	188.1	199.9	211.3	221.7
308.15 K	111.1	125.9	139.7	152.3	164.9	176.4	189.9	202.1	212.6	222.1
313.15 K	112	127.8	141.9	154.4	166.7	178.5	192.3	204.4	214.6	223.4
318.15 K	113	129.8	144.1	156.5	169	180.6	194.4	206.7	216.5	224.6
323.15 K	114.3	132.1	146.3	158.2	171	182.5	196.6	208.8	218	225.3
328.15 K	115.5	134.5	148.7	160.6	172.7	184.8	198.7	210.8	219.8	225.7
333.15 K	116.4	136.4	151.5	163.3	174.8	186.4	200.6	213.1	221.6	227.5
338.15 K	117.4	137.7	153.5	165.8	177.1	188.5	202.8	215.2	223.5	228.5
343.15 K	118.4	139.3	156.2	169	179.7	191.4	205.4	217.7	225.5	229.6
348.15 K	119.5	141	157.8	171.3	182.6	194.4	208.5	220.6	227.9	231.7
353.15 K	120.8	142.4	159.4	173.6	185.7	198.7	213.5	225.5	233.5	235.9

NCCCN1CCOCC1 [N-(3-aminopropyl)morpholine] + O
molar heat capacity at constant pressure [J/K/mol]
Conditions	x1 = 0.0999	x1 = 0.2	x1 = 0.2921	x1 = 0.3916	x1 = 0.4896	x1 = 0.6011	x1 = 0.6947	x1 = 0.7952	x1 = 0.8939	x1 = 1
298.15 K	108.4	136.2	160.1	183.1	203.5	224.3	242.5	261.6	278.9	296.2
303.15 K	109.3	137.2	161.5	184.9	205.1	226.3	244.5	263.6	281	298.2
308.15 K	110.3	138.2	162.6	186.4	206.8	227.8	246.1	265.1	282.5	299.6
313.15 K	111.3	139.5	164	188.1	208.5	229.5	247.7	266.7	284	301.2
318.15 K	112.3	140.9	165.6	189.9	210.3	231.2	249.4	268.4	285.8	302.8
323.15 K	113.1	142.3	167.2	191.3	211.7	232.9	251.1	270.1	287.5	304.5
328.15 K	114	143.7	168.6	192.9	213.2	234.4	252.6	271.6	289.1	306.1
333.15 K	114.9	145.3	170.3	194.5	214.8	236	254.3	273.4	290.9	307.9
338.15 K	115.9	146.8	171.9	196.2	216.5	237.7	256	275	292.5	309.6
343.15 K	116.8	148.2	173.8	197.6	218.1	239.5	257.6	276.5	294.2	311.3
348.15 K	117.8	149.7	175.5	199.3	219.7	240.9	259.1	277.9	295.6	312.7
353.15 K	118.9	151.1	177.2	201.6	221.1	242.1	260.2	278.7	296.3	313.4
